Reference: article PMC9025810, “Interaction of Antifungal Drugs with CYP3A- and OATP1B-Mediated Venetoclax Elimination” (Pharmaceutics, 2022)

Experiments:
OATP1B1 [1] = biological target: T1, OATP1B1 (Homo sapiens, UniProt Q9Y6L6); assay: Radioactive uptake and membrane/intracellular fractionation in cells overexpressing OATP1B1 or vector; assay type: cell-based; set-up: expressed in transfected cells
T1 sequence (Q9Y6L6 1-691): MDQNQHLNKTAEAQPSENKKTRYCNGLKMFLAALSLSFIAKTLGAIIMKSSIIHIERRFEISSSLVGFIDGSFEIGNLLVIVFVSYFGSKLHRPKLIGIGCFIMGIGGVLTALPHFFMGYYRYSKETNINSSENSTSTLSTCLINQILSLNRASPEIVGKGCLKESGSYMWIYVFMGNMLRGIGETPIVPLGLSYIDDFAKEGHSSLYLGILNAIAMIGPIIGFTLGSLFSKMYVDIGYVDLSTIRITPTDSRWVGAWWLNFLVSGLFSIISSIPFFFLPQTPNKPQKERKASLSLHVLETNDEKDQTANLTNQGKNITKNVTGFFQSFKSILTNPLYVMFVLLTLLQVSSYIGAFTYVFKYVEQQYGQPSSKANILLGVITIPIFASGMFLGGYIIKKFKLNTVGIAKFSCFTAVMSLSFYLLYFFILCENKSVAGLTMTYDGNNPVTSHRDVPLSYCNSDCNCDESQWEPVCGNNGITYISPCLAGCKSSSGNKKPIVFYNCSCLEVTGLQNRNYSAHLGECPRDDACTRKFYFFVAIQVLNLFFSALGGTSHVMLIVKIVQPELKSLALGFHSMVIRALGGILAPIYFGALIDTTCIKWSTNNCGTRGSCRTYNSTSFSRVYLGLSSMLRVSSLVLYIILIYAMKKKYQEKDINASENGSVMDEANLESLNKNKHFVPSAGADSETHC
Protocol: For experiments seeking to directly determine if venetoclax is an OATP1B1 substrate, cells overexpressing OATP1B1 or VC were seeded in six-well plates in phenol red-free DMEM containing 10% FBS and doxycycline (1 µg/mL) for 24 h. […] Cells were then immediately lysed with 1 mL of 1 N NaOH for 4 h on an orbital shaker at room temperature to measure total radioactivity. Alternatively, cells were trypsinized with 200 µL of TrypLE (Thermo Fisher Scientific, Waltham, MA, USA) for 3–5 min, rinsed with 800 µL of ice-cold washing buffer, and ProteoExtract Native Membrane Protein Extraction Kits (EMD Millipore, Burlington, MA, USA) were used to separate membrane and intracellular fractions. Dissociated cells were then transferred to 1.5-mL Eppendorf tubes. For measurement of total radioactivity, cells were neutralized with 500 µL of 2 M HCl after 4 h. For measurement of total radioactivity in the membrane or intracellular fraction, cells were isolated following the manufacturer’s protocol, as we have reported previously; this procedure is based on a differential extraction procedure under non-denaturing conditions.

OATP1B1 [2] = biological target: T1, OATP1B1; assay: Competitive counterflow assay with 8-acetoxy-trisulfopyrene; assay type: cell-based; set-up: expressed in transfected cells
Protocol: Competitive counterflow assays were performed with 8-acetoxy-trisulfopyrene, an activatable fluorogenic probe for OATP1B1, as described previously. In brief, cells expressing a vector or OATP1B1 were seeded in 96-well opaque plates in phenol-red free DMEM media with 10% FBS and induced with doxycycline for 24 h. On the day of the experiment, the media was removed, and the cells were washed three times with warm PBS. The cells were then incubated for 20 min at 37 °C with 100 µL of 5 µM 8-acetoxypyrene-1,3,6-trisulfonate uptake buffer (ACE; 125 mM NaCl, 4.8 mM KCl, 1.2 mM CaCl2, 1.2 mM KH2PO4, […], 25 mM 2-N-morpholino), ethanesulfonic acid, and 5.6 mM glucose, with the pH adjusted to 5.5). […] The fluorescence was measured at excitation and emission wavelengths of 460 nm and 510 nm, respectively, after 20 min of incubation to control for the number of cells.
The plates were incubated for 20 min at 37 °C. In the final step, the supernatant was removed, and the cells were washed three times with 200 µL ice-cold PBS to stop the reaction. PBS was then removed and 200 µL of 0.1 N NaOH was added to each well to normalize the pH. The fluorescence was measured as described above after another 20 min incubation at room temperature. The levels of cell dye were reported as a percent of the measurement from cells containing ACE alone.

human CYP3A4 = biological target: T2, human CYP3A4 (Homo sapiens, UniProt P08684); assay: Venetoclax metabolism by human recombinant CYP3A4 supersomes; assay type: in vitro ADME; conditions: 10 µM venetoclax, 40 nM CYP3A4 supersomes, 2 h
T2 construct: purchased Corning 456207
T2 sequence (P08684 whole entry): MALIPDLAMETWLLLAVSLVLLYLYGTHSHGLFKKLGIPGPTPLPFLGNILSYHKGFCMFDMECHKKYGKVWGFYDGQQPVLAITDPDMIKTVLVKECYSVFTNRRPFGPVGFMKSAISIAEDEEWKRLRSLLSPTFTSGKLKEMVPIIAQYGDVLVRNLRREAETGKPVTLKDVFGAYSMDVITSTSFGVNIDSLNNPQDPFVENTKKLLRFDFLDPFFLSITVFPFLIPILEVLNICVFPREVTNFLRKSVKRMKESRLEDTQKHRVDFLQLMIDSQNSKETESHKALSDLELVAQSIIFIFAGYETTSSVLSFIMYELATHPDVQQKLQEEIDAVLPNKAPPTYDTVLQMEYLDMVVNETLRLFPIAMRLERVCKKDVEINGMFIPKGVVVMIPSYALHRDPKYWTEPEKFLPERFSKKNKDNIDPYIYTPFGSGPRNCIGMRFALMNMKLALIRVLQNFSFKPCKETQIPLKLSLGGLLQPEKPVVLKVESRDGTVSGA
Protocol: The ability of human CYP3A4 to metabolize venetoclax was assessed using human CYP3A4 supersomes using standard procedures. Reactions were performed in a volume of 100 µL. […] The mixture was preincubated for 5 min at 37 °C before initiating the reaction by the addition of the NADPH regenerating system and incubating at 37 °C with continuous shaking (400 rpm). At 0 h and 2 h, a 20 µL aliquot was mixed with 20 µL methanol to terminate the reaction. The mixture was then vortexed and stored at −80 °C until analysis. Venetoclax was quantified using a validated UHPLC-MS/MS analytical method.

Uptake in the intracellular fraction with overexpression of OATP1B1 versus vector (OATP1B1 [1]; 0.2 µM EβG or 1 µM venetoclax, 15 min): significant increases
Detectable compound associated with the membrane fraction (OATP1B1 [1]; after correction for the intracellular fraction): > 96%
Venetoclax remaining unbound (membrane-binding experiment) (OATP1B1 [1]; in vitro, cells): < 3%
Radioactivity in the membrane fraction relative to the probe substrate EβG (OATP1B1 [1]; membrane fraction, 1 µM venetoclax vs 0.2 µM EβG): > 500 fold
Detected total radioactivity relative to the probe substrate EβG (OATP1B1 [1]; whole cell lysate, cells expressing OATP1B1 or vector, 15 min): > 10 fold
Amount of venetoclax in the reaction in the presence of ketoconazole (human CYP3A4; 10 µM ketoconazole): nearly unchanged
Reduction of the amount of venetoclax in the reaction (human CYP3A4; vehicle (DMSO)): 40%
Compound: CC1(C)CCC(CN2CCN(c3ccc(C(=O)NS(=O)(=O)c4ccc(NCC5CCOCC5)c([N+](=O)[O-])c4)c(Oc4cnc5[nH]ccc5c4)c3)CC2)=C(c2ccc(Cl)cc2)C1 [Venetoclax]
Effect on fluorescence (cell dye level) in competitive counterflow (OATP1B1 [2]; 5 µM ACE, venetoclax 200 µM, cyclosporin A 10 µM, paraformaldehyde 0.5%, 20 min): significantly decreased fluorescence
Actual unbound concentration of venetoclax in counterflow experiments (OATP1B1 [2]; nominal concentration 200 µM): < 10 µM
